The values that follow are results of earlier work, collected in PMC6906348 (Therapeutic Advances in Medical Oncology, 2019).

Where two headings read alike, the source gives them in different places.

The test system of data set [1] is patients progressing on or after sorafenib treatment (HCC). The conditions noted are these: cited from earlier work.
The test system of data set [2] is patients with unresectable advanced HCC. Particulars: cited from earlier work.
Data set [3] has the same test system. Particulars: cited from earlier work. The source holds these as a separate data set.
Data set [4] deals with Asian patients with advanced HCC. Particulars: cited from earlier work.
For data set [5], the system named is patients with MET-high HCC. The conditions noted are these: MET-high HCC defined by IHC ⩾2+ in ⩾50% of tumor cells; cited from earlier work.
Data set [6] concerns patients with advanced HCC. Particulars: cited from earlier work.

With `CNC(=O)c1cc(Oc2ccc(NC(=O)Nc3ccc(Cl)c(C(F)(F)F)c3)c(F)c2)ccn1` [regorafenib], the overall response rate in data set [1] (versus 4% in the placebo arm) was 11%. The overall survival in data set [1] (versus 7.8 months for placebo) is given as 10.6 months.
On to `CNC(=O)c1cc(Oc2ccc(NC(=O)Nc3ccc(Cl)c(C(F)(F)F)c3)cc2)ccn1` [sorafenib], for which, in data set [2] (sorafenib group versus placebo), the “hazard ratio (HR), overall survival” value was 0.69. The overall response rate in data set [2] (versus 1% for placebo) was 2%. In addition, the “median time to progression (TTP)” value in data set [2] (versus 2.8 months for placebo) is listed as 5.5 months. For the same compound, the median overall survival in data set [2] (versus 7.9 months for placebo) was 10.7 months; in data set [3] (versus 4.2 months for placebo) it was 6.5 months. Further, in data set [2] (versus 32% for placebo), the disease control rate was 43%. Also, the “HR, overall survival” value in data set [3] (sorafenib group versus placebo) is reported as 0.68.
For the compound `CN1CCC(COc2cnc(-c3cccc(Cn4nc(-c5cccc(C#N)c5)ccc4=O)c3)nc2)CC1` [tepotinib], in data set [4] (MET-positive defined as ⩾50% tumor IHC 2+/3+), the “MET-positive patients with partial responses” value is given as 2/7. Besides, the “patients with partial responses” value in data set [4] (unselected patients, 2/27) is 7.4%. The disease control rate in data set [4] (unselected patients) was 37%.
Regarding `O=C1NC(=O)[C@@H](c2cn3c4c(cccc24)CCC3)[C@@H]1c1c[nH]c2ccccc12` [tivantinib], in data set [5], the study outcome is on record as “negative”.
As to nivolumab, the overall response rate is 20% in data set [6] (all patients) and 14% in data set [6] (sorafenib-treated patients).
